In the CheMixHub viscosity set:

Assay: xn = mol fraction of the nth substance listed

CCCCNCCCC + CCO
viscosity [mPa·s], 101.33 kPa
Details	x1 = 0.1169	x1 = 0.2094	x1 = 0.3171	x1 = 0.3921	x1 = 0.4922	x1 = 0.6159	x1 = 0.712	x1 = 0.7802	x1 = 0.8995
303.15 K	1.107	1.126	1.099	1.065	1.008	0.9427	0.8965	0.8625	0.8089
313.15 K	0.9037	0.9066	0.8803	0.8493	0.8109	0.766	0.7426	0.7261	0.6965

CCOC(=O)C(=O)OCC + CCO
viscosity [mPa·s]
Details	303.15 K	313.15 K	323.15 K
101 kPa, x1 = 0.1003	0.935	0.799	0.667
101 kPa, x1 = 0.2024	0.948	0.809	0.68
101 kPa, x1 = 0.3028	0.988	0.836	0.711
101 kPa, x1 = 0.4015	1.045	0.879	0.751
101 kPa, x1 = 0.4917	1.108	0.93	0.793
101 kPa, x1 = 0.5907	1.177	0.99	0.845
101 kPa, x1 = 0.6942	1.259	1.063	0.909
101 kPa, x1 = 0.8049	1.362	1.151	0.987
101 kPa, x1 = 0.903	1.484	1.233	1.061
101.33 kPa, x1 = 0.1001	0.948	–	–
101.33 kPa, x1 = 0.2004	0.968	–	–
101.33 kPa, x1 = 0.2897	1.009	–	–
101.33 kPa, x1 = 0.398	1.069	–	–
101.33 kPa, x1 = 0.5098	1.146	–	–
101.33 kPa, x1 = 0.5982	1.213	–	–
101.33 kPa, x1 = 0.6828	1.283	–	–
101.33 kPa, x1 = 0.77	1.371	–	–
101.33 kPa, x1 = 0.8931	1.515	–	–

COCCO + CCOC(=O)OCC
298.15 K, 101.33 kPa
Details	viscosity [mPa·s]
x1 = 0.0272	0.752
x1 = 0.0413	0.754
x1 = 0.0549	0.755
x1 = 0.0747	0.755
x1 = 0.0907	0.759
x1 = 0.1297	0.765
x1 = 0.1593	0.772
x1 = 0.224	0.791
x1 = 0.2925	0.814
x1 = 0.3392	0.835
x1 = 0.4073	0.866
x1 = 0.4273	0.877
x1 = 0.456	0.892
x1 = 0.4715	0.902
x1 = 0.5283	0.939
x1 = 0.5966	0.99
x1 = 0.6278	1.015
x1 = 0.6808	1.062
x1 = 0.7227	1.106
x1 = 0.7552	1.142
x1 = 0.8011	1.197
x1 = 0.8428	1.253
x1 = 0.8647	1.285
x1 = 0.8826	1.313
x1 = 0.9127	1.359
x1 = 0.9464	1.418
x1 = 0.9674	1.455
x2 = 0.0047	1.512
x2 = 0.0149	1.491

C1CCNCC1 + CCOC(C)=O
303.15 K, 101 kPa
Details	viscosity [mPa·s]
x1 = 0.1	0.45
x1 = 0.2	0.49
x1 = 0.3	0.53
x1 = 0.4	0.565
x1 = 0.5	0.625
x1 = 0.6	0.71
x1 = 0.7	0.795
x1 = 0.8	0.895
x1 = 0.9	1.04

CCOC(=O)C(=O)OCC + CCOC(C)=O
viscosity [mPa·s], 101 kPa
Details	x1 = 0.0949	x1 = 0.196	x1 = 0.3019	x1 = 0.4065	x1 = 0.5006	x1 = 0.6036	x1 = 0.6954	x1 = 0.7993	x1 = 0.8948
303.15 K	0.458	0.535	0.636	0.736	0.844	0.978	1.107	1.265	1.428
313.15 K	0.423	0.486	0.56	0.647	0.734	0.847	0.95	1.081	1.203
323.15 K	0.381	0.436	0.499	0.571	0.646	0.74	0.825	0.928	1.028

COCCO + CCOC(C)=O
viscosity [mPa·s], 101 kPa
Details	x1 = 0.0974	x1 = 0.1945	x1 = 0.2964	x1 = 0.3997	x1 = 0.4973	x1 = 0.5922	x1 = 0.6956	x1 = 0.8008	x1 = 0.9012
298.15 K	0.47	0.514	0.572	0.644	0.736	0.838	0.992	1.19	1.421
303.15 K	0.444	0.484	0.536	0.601	0.683	0.775	0.912	1.086	1.286
308.15 K	0.42	0.456	0.514	0.564	0.636	0.719	0.84	0.994	1.173

CCCC[N+](C)(CCCC)CCCC.N#C[N-]C#N + CC[n+]1ccn(C)c1.N#C[N-]C#N
Details	viscosity [mPa·s]
323.15 K, 101 kPa, x2 = 0.2114	42.05

CC(=O)OC(C)C + CCc1ccccc1
viscosity [mPa·s], 101 kPa
Details	x1 = 0.1056	x1 = 0.2037	x1 = 0.3116	x1 = 0.4048	x1 = 0.5112	x1 = 0.6089	x1 = 0.7156	x1 = 0.811	x1 = 0.9403
303.15 K	0.582	0.567	0.551	0.538	0.523	0.51	0.496	0.484	0.467
313.15 K	0.523	0.509	0.494	0.482	0.469	0.457	0.445	0.434	0.42

CC(=O)OCC(C)C + CCc1ccccc1
viscosity [mPa·s], 101 kPa
Details	x1 = 0.0948	x1 = 0.1767	x1 = 0.2601	x1 = 0.3586	x1 = 0.4735	x1 = 0.5727	x1 = 0.7004	x1 = 0.7989	x1 = 0.8805	x1 = 0.9463
303.15 K	0.596	0.597	0.599	0.602	0.606	0.61	0.616	0.623	0.63	0.635
313.15 K	0.527	0.528	0.529	0.53	0.534	0.539	0.545	0.552	0.559	0.569

[Cl-].[Li+] + CN1CCCC1=O
298.15 K, 101 kPa
Details	viscosity [mPa·s]
x1 = 0.03756	2.607
x1 = 0.03819	2.63
x1 = 0.04156	2.626
x1 = 0.07132	3.558
x1 = 0.07175	3.558
x1 = 0.07229	3.56
x1 = 0.1038	4.959
x1 = 0.1042	4.958
x1 = 0.1044	4.958

CCCC(C)O (configuration not stated) + CN(C)C=O
viscosity [mPa·s], 101 kPa
Details	x2 = 0.109	x2 = 0.1534	x2 = 0.2404	x2 = 0.345	x2 = 0.4412	x2 = 0.5603	x2 = 0.6548	x2 = 0.7436	x2 = 0.8432	x2 = 0.9376
298.15 K	2.69	2.51	2.26	2.01	1.82	1.59	1.41	1.25	1.07	0.91
303.15 K	2.23	2.05	1.84	1.65	1.51	1.33	1.21	1.08	0.96	0.84
308.15 K	1.83	1.68	1.49	1.35	1.24	1.13	1.04	0.95	0.86	0.78
313.15 K	1.54	1.4	1.24	1.13	1.05	0.97	0.91	0.86	0.79	0.72

CCCCNCCCC + CNC(C)=O
308.15 K, 101 kPa
Details	viscosity [mPa·s]
x1 = 0.0121	3.267
x2 = 0.0611	0.7366
x2 = 0.2864	1.116
x2 = 0.4546	1.522
x2 = 0.5799	1.89
x2 = 0.6904	2.25
x2 = 0.7866	2.584
x2 = 0.8542	2.828
x2 = 0.9262	3.06

CCCC(=O)O + CNC=O
viscosity [mPa·s], 100 kPa
Details	x2 = 0.1187	x2 = 0.1967	x2 = 0.2806	x2 = 0.3708	x2 = 0.5026	x2 = 0.6111	x2 = 0.6888	x2 = 0.7711	x2 = 0.9041
303.15 K	1.415	1.434	1.455	1.476	1.504	1.524	1.537	1.55	1.57
308.15 K	1.275	1.296	1.317	1.34	1.37	1.393	1.408	1.423	1.447
313.15 K	1.136	1.159	1.183	1.208	1.242	1.269	1.286	1.305	1.334
318.15 K	0.9979	1.024	1.052	1.08	1.12	1.152	1.174	1.197	1.233

CCCCNCCCC + CO
viscosity [mPa·s], 101 kPa
Details	x2 = 0.0931	x2 = 0.1959	x2 = 0.2948	x2 = 0.3963	x2 = 0.4955	x2 = 0.6075	x2 = 0.7011	x2 = 0.7979	x2 = 0.9185
303.15 K	0.745	0.725	0.706	0.689	0.663	0.639	0.609	0.579	0.548
313.15 K	0.643	0.626	0.61	0.595	0.569	0.549	0.525	0.501	0.476
323.15 K	0.543	0.528	0.513	0.498	0.483	0.467	0.452	0.435	0.413

COCCO + CO
viscosity [mPa·s]
Details	298.15 K	308.15 K	318.15 K
101 kPa, x1 = 0.04469	0.6045	0.5088	0.4575
101 kPa, x1 = 0.09523	0.6714	0.536	0.469
101 kPa, x1 = 0.1529	0.7467	–	0.4955
101 kPa, x1 = 0.2192	0.8508	0.6249	0.5383
101 kPa, x1 = 0.2963	0.9698	0.6991	0.6017
101 kPa, x1 = 0.3871	1.085	0.7594	0.6484
101 kPa, x1 = 0.4956	1.19	0.8407	0.7649
101 kPa, x1 = 0.6274	1.299	0.9321	0.8436
101 kPa, x1 = 0.7912	1.419	1.058	0.9667
101.33 kPa, x1 = 0.1175	–	0.569	–
101.33 kPa, x1 = 0.2098	–	0.64	–
101.33 kPa, x1 = 0.3143	–	0.717	–
101.33 kPa, x1 = 0.4866	–	0.844	–
101.33 kPa, x1 = 0.6126	–	0.93	–
101.33 kPa, x1 = 0.762	–	1.036	–
101.33 kPa, x1 = 0.8201	–	1.074	–
101.33 kPa, x1 = 0.9101	–	1.13	–

N#C[S-].[Na+] + CO
viscosity [mPa·s], 101.3 kPa
Details	293.15 K	298.15 K	303.15 K	308.15 K	313.15 K	318.15 K	323.15 K
x1 = 0.003649	0.656	0.608	0.563	0.526	0.491	0.46	0.432
x1 = 0.01456	0.819	0.753	0.695	0.643	0.597	0.556	0.518
x1 = 0.03159	0.947	0.871	0.803	0.743	0.689	0.646	0.602
x1 = 0.0463	1.117	1.027	0.947	0.873	0.811	0.753	0.703
x1 = 0.05341	1.197	1.101	1.011	0.932	0.861	0.798	0.742
x1 = 0.07204	1.409	1.286	1.176	1.086	1.011	0.923	0.859
x1 = 0.08868	1.716	1.552	1.416	1.293	1.186	1.092	1.009
x1 = 0.09954	1.915	1.711	1.514	1.38	1.261	1.16	1.068
x1 = 0.1138	2.253	1.996	1.793	1.624	1.477	1.353	1.239
x1 = 0.1229	2.36	2.109	1.904	1.732	1.565	1.426	1.304
x1 = 0.1415	2.922	2.58	2.295	2.055	1.854	1.683	1.535

COCCO + COC(=O)OC
298.15 K, 101.33 kPa
Details	viscosity [mPa·s]
x1 = 0.0114	0.593
x1 = 0.0258	0.594
x1 = 0.0442	0.598
x1 = 0.0637	0.6
x1 = 0.0769	0.603
x1 = 0.0975	0.608
x1 = 0.1462	0.624
x1 = 0.2295	0.658
x1 = 0.2503	0.669
x1 = 0.2778	0.681
x1 = 0.3223	0.704
x1 = 0.34	0.713
x1 = 0.4034	0.758
x1 = 0.4719	0.81
x1 = 0.5173	0.848
x1 = 0.5482	0.874
x1 = 0.5889	0.91
x1 = 0.6404	0.96
x1 = 0.7382	1.075
x1 = 0.814	1.12
x1 = 0.8597	1.252
x1 = 0.89	1.305
x1 = 0.9189	1.355
x1 = 0.9738	1.471
x2 = 0.0109	1.516
